Experimental data reported in patent US9695240B2, “Anthracycline derivative conjugates, process for their preparation and their use as antitumor compounds” (Genentech, Inc., priority 2008, dated 2017).

Assays:
BT-474 cells = assay: CellTiter-Glo in vitro cell proliferation assay, BT-474; type: cell-based; conditions: continuous exposure, 3 days
Text: (§1) Cell-based in vitro assays may be used to measure viability, i.e. proliferation (IC50), cytotoxicity (EC50), and induction of apoptosis (caspase activation) of the ADC. The CellTiter-Glo® Luminescent Cell Viability Assay is a commercially available (Promega Corp., Madison, Wis.), homogeneous assay method based on the recombinant expression of Coleoptera luciferase (U.S. Pat. Nos. 5,583,024; 5,674,713; 5,700,670). This cell proliferation assay determines the number of viable cells in culture based on quantitation of the ATP present, an indicator of metabolically active cells (Crouch et al (1993) J. Immunol. Meth. 160:81-88; U.S. Pat. No. 6,602,677). The CellTiter-Glo® Assay is conducted in 96 well format, making it amenable to automated high-throughput screening (HTS) (Cree et al (1995) AntiCancer Drugs 6:398-404). The homogeneous assay procedure involves adding the single reagent (CellTiter-Glo® Reagent) directly to cells cultured in serum-supplemented medium. Cell washing, removal of medium and multiple pipetting steps are not required. The system detects as few as 15 cells/well in a 384-well format in 10 minutes after adding reagent and mixing.
(§2) The in vitro potency of antibody-drug conjugates was measured by a cell proliferation assay (FIGS. 8-29). The CellTiter-Glo® Luminescent Cell Viability Assay is a commercially available (Promega Corp., Madison, Wis.), homogeneous assay method based on the recombinant expression of Coleoptera luciferase (U.S. Pat. Nos. 5,583,024; 5674,713; 5,700,670). This assay determines the number of viable cells in culture based on quantitation of the ATP present, an indicator of metabolically active cells (Crouch et al (1993) J. Immunol. Meth. 160:81-88; U.S. Pat. No. 6,602,677). The CellTiter-Glo® Assay was conducted in 96 well format, making it amenable to automated high-throughput screening (HTS) (Cree et al (1995) AntiCancer Drugs 6:398-404). The homogeneous assay procedure involves adding the single reagent (CellTiter-Glo® Reagent) directly to cells cultured in serum-supplemented medium.
(§3) The homogeneous “add-mix-measure” format results in cell lysis and generation of a luminescent signal proportional to the amount of ATP present. The substrate, Beetle Luciferin, is oxidatively decarboxylated by recombinant firefly luciferase with concomitant conversion of ATP to AMP and generation of photons. Viable cells are reflected in relative luminescence units (RLU). Data can be recorded by luminometer or CCD camera imaging device. The luminescence output is presented as RLU, measured over time. Alternatively, photons from luminescence can be counted in a scintillation counter in the presence of a scintillant. The light units can be represented then as CPS—counts per second.
(§4) Efficacy of ADC were measured by a cell viability assay employing the following protocol, adapted from CellTiter Glo Luminescent Cell Viability Assay, Promega Corp. Technical Bulletin TB288 and Mendoza et al (2002) Cancer Res. 62:5485-5488: • 1. An aliquot of 50 μl of cell culture containing about 1000 or more cells, including: HER2-expressing and CD22-expressing cells, in medium was deposited in each well of a 96-well, opaque-walled, clear bottom plate. • 2. ADC (50 μl) was added to triplicate experimental wells to final concentration of 10 μg/mL, with “no ADC” control wells receiving medium alone, and incubated for 3 or more days. • 3. The plates were equilibrated to room temperature for approximately 30 minutes. • 4. CellTiter-Glo Reagent (100 μl) was added. • 5. The contents were mixed for 2 minutes on an orbital shaker to induce cell lysis. • 6. The plate was incubated at room temperature for 10 minutes to stabilize the luminescence signal. • 7. Luminescence was recorded and reported in graphs as RLU=relative luminescence units.

[1] = system: doxorubicin-resistant (DoxRes) HER2 cells; assay: CellTiter-Glo in vitro cell proliferation assay, doxorubicin-resistant HER2; type: cell-based; conditions: continuous exposure, 3 days
Text: as §1, §2, §3, §4

MCF7 cells = assay: CellTiter-Glo in vitro cell proliferation assay, MCF7; type: cell-based, human; conditions: continuous exposure, 3 days
Text: as §1, §2, §3, §4

SK-BR-3 cells = assay: CellTiter-Glo in vitro cell proliferation assay, SK-BR-3; type: cell-based; conditions: continuous exposure, 3 days
Text: as §1, §2, §3, §4

[2] = Stability of the conjugate in ammonium acetate buffer, HPLC; type: physicochemical; conditions: for % release of Compound IIA from the conjugate: 37° C., after four hours incubation
Procedure: Stability of the conjugates was studied using HPLC analysis. The conjugate was incubated in ammonium acetate buffers at pH 4 and 5.2 at 37° C. Each solution was then taken periodically and applied to an HPLC column using a method reported above. The amount of material released from the conjugate was determined and expressed as percent of released material.
To 0.5 mg of conjugate, ammonium acetate 5 mM pH=5.2 buffer solution (200 mL) was added. The solution was warmed at 37° C. and sample was taken periodically and analyzed by HPLC (method 2). Results are expressed as % of released material (8S,10S)-6,8,11-trihydroxy-8-(hydroxyacetyl)-1-methoxy-10-{[(1S,3R,4aS,9S,9aR,10aS)-9-methoxy-1-methyloctahydro-1H-pyrano[4′,3′:4,5][1,3]oxazolo[2,3-c][1,4]oxazin-3-yl]oxy}-7,8,9,10-tetrahydrotetracene-5,12-dione (Compound IIA) from the conjugate. […]

tumor models = conditions: cited from earlier work

| SMILES | BT-474 in vitro cell viability at 3 days, anti-proliferative activity in words (BT-474 cells) | DoxRes HER2 in vitro cell viability at 3 days, anti-proliferative activity in words [1] | MCF7 in vitro cell viability at 3 days, anti-proliferative activity in words (MCF7 cells) | SK-BR-3 in vitro cell viability at 3 days, anti-proliferative activity in words (SK-BR-3 cells) | % release of Compound IIA from the conjugate ([2]; pH 4.2 buffer solution) [%] | % release of Compound IIA from the conjugate ([2]; pH 5.2 buffer solution) [%] | antitumor activity in in vivo tumor models, in words (tumor models) | stability at pH 5.2, release of compound of formula (IIA) over time, in words ([2]; pH 5.2, FIG. 1) |
| --- | --- | --- | --- | --- | --- | --- | --- | --- |
| COc1cccc2c1C(=O)c1c(O)c3c(c(O)c1C2=O)C[C@@](O)(/C(CO)=N/NC(=O)CCCCCN1C(=O)C=CC1=O)C[C@@H]3O[C@H]1C[C@H]2[C@H](O[C@@H]3[C@@H](OC)OCCN32)[C@H](C)O1 [Compound 52, 6-(2,5-dioxo-2,5-dihydro-1H-pyrrol-1-yl)-N′-{(1E)-2-hydroxy-1-[(2S,4S)-2,5,12-trihydroxy-7-methoxy-4-{[(1S,3R,4aS,9S,9aR,10aS)-9-methoxy-1-methyloctahydro-1H-pyrano[4′,3′:4,5][1,3]oxazolo[2,3-c][1,4]oxazin-3-yl]oxy}-6,11-dioxo-1,2,3,4,6,11-hexahydrotetracen-2-yl]ethylidene}hexanehydrazide] | minimal anti-proliferative activity | less potent than free Ant | minial anti-proliferative activity | less potent than free Ant | – | – | – | – |
| COc1cccc2c1C(=O)c1c(O)c3c(c(O)c1C2=O)C[C@@](O)(/C(CO)=N/NC(=O)CCSSC[C@H](NC(C)=O)C(=O)O)C[C@@H]3O[C@H]1C[C@H]2[C@H](O[C@@H]3[C@@H](OC)OCCN32)[C@H](C)O1 [Compound 12, N-acetyl-3-({3-[(2E)-2-{2-hydroxy-1-[(2S,4S)-2,5,12-trihydroxy-7-methoxy-4-{[(1S,3R,4aS,9S,9aR,10aS)-9-methoxy-1-methyloctahydro-1H-pyrano[4′,3′:4,5][1,3]oxazolo[2,3-c][1,4]oxazin-3-yl]oxy}-6,11-dioxo-1,2,3,4,6,11-hexahydrotetracen-2-yl]ethylidene}hydrazinyl]-3-oxopropyl}disulfanyl)-L-alanine] | – | – | – | – | 100 | 90 | – | – |
| COc1cccc2c1C(=O)c1c(O)c3c(c(O)c1C2=O)C[C@@](O)(C(=O)CO)C[C@@H]3O[C@H]1C[C@H](N2CCO[C@H](OC)C2)[C@H](O)[C@H](C)O1 [nemorubicin, (8S,10S)-6,8,11-trihydroxy-10-((2R,4S,5S,6S)-5-hydroxy-4-((S)-2-methoxymorpholino)-6-methyltetrahydro-2H-pyran-2-yloxy)-8-(2-hydroxyacetyl)-1-methoxy-7,8,9,10-tetrahydrotetracene-5,12-dione] | – | – | – | – | – | – | promising antitumor activity on experimental murine tumors | – |
| COc1cccc2c1C(=O)c1c(O)c3c(c(O)c1C2=O)C[C@@](O)(/C(CO)=N/NC(=O)CCSSc1ccccn1)C[C@@H]3O[C@H]1C[C@H]2[C@H](O[C@@H]3[C@@H](OC)OCCN32)[C@H](C)O1 [Compound 53, N′-{(1E)-2-hydroxy-1-[(2S,4S)-2,5,12-trihydroxy-7-methoxy-4-{[(1S,3R,4aS,9S,9aR,10aS)-9-methoxy-1-methyloctahydro-1H-pyrano[4′,3′:4,5][1,3]oxazolo[2,3-c][1,4]oxazin-3-yl]oxy}-6,11-dioxo-1,2,3,4,6,11-hexahydrotetracen-2-yl]ethylidene}-3-(pyridin-2-yldisulfanyl)propanehydrazide] | minimal anti-proliferative activity | less potent than free Ant | minial anti-proliferative activity | less potent than free Ant | – | – | – | – |
| COc1cccc2c1C(=O)c1c(O)c3c(c(O)c1C2=O)C[C@@](O)(C(=O)COC1CCCC(COCC(=O)ON2C(=O)CCC2=O)O1)C[C@@H]3O[C@H]1C[C@H]2[C@H](O[C@@H]3[C@@H](OC)OCCN32)[C@H](C)O1 (stereo partly drawn) [Compound 50, 1-({[(6-{2-oxo-2-[(2S,4S)-2,5,12-trihydroxy-7-methoxy-4-{[(1S,3R,4aS,9S,9aR,10aS)-9-methoxy-1-methyloctahydro-1H-pyrano[4′,3′:4,5][1,3]oxazolo[2,3-c][1,4]oxazin-3-yl]oxy}-6,11-dioxo-1,2,3,4,6,11-hexahydrotetracen-2-yl]ethoxy}tetrahydro-2H-pyran-2-yl)methoxy]acetyl}oxy)pyrrolidine-2,5-dione] | inactive | minimal anti-proliferative activity | inactive | minimal anti-proliferative activity | – | – | – | – |
| COc1cccc2c1C(=O)c1c(O)c3c(c(O)c1C2=O)C[C@@](O)(C(=O)COC1CCCC(COCC(=O)NCCN2C(=O)C=CC2=O)O1)C[C@@H]3O[C@H]1C[C@H]2[C@H](O[C@@H]3[C@@H](OC)OCCN32)[C@H](C)O1 (some centres unmarked) [Compound 51] | inactive | minimal anti-proliferative activity | inactive | minimal anti-proliferative activity | – | – | – | – |
| CNC(=O)COC1(OCC(=O)[C@]2(O)Cc3c(O)c4c(c(O)c3[C@@H](O[C@H]3C[C@H]5[C@H](O[C@@H]6[C@@H](OC)OCCN65)[C@H](C)O3)C2)C(=O)c2c(OC)cccc2C4=O)CCCCC1 [Compound 2, N-methyl-2-[(1-{2-oxo-2-[(2S,4S)-2,5,12-trihydroxy-7-methoxy-4-{[(1S,3R,4aS,9S,9aR,10aS)-9-methoxy-1-methyloctahydro-1H-pyrano[4′,3′:4,5][1,3]oxazolo[2,3-c][1,4]oxazin-3-yl]oxy}-6,11-dioxo-1,2,3,4,6,11-hexahydrotetracen-2-yl]ethoxy}cyclohexyl)oxy]acetamide] | – | – | – | – | – | – | – | increased release of the free compound of the formula (IIA) |
